Test results: patent publication US5760241A, “Thiol derivatives with metallopeptidase inhibitory activity” (priority 1996, dated 1998)

Legend:
NEP (SHR kidneys) = assay: Ex vivo NEP-inhibitory activity in kidneys of treated SHR; design: species or system spontaneously hypertensive rats (SHR); conditions: i.v. 0.64 μmoles/kg, 5 minutes
Description: The ex vivo ACE/NEP-inhibitory activity of the compounds of formula I, in particular, was evaluated by considering the enzymatic activity in tissue homogenates (lung and kidney for the ACE- and NEP-inhibitory activity, respectively) from spontaneously hypertensive rats (SHR), treated with the tested compounds by intravenous or oral route.
a) NEP-inhibitory activity
The ex vivo NEP-inhibitory activity was evaluated according to the procedure reported in the literature by M. Orlowsky et al., in Biochemistry 1981, 20, 4942-4950.
The inhibitory activity of the compounds of formula I was evaluated in kidneys of spontaneously hypertensive rats (SHR), 5 minutes after i.v. injection (0.6, 0.64 and 21 μmoles/kg) and 30 minutes, 60 minutes and 4 hours after oral administration (30 μmoles/kg) of the tested compounds.
After the removal of the kidneys from SHR, the renal tissue was homogenized and incubated for 15 minutes at 37° C. in the presence of Glutaryl-Ala-Ala-Phe-2-naphthylamide (GAAP), as a substrate, and aminopeptidase M at pH 7.6.
The reaction was stopped by adding an aqueous solution at 10% of trichloroacetic acid.
The released 2-naphthylamine was determined by adding fast garnet dye (2 ml).
Enzyme reaction rates were determined by measuring the increase in the optical density at 524 nm (OD524) with respect to a standard obtained with 2-naphthylamine complexed with fast garnet.
The NEP-inhibitory activity of the tested compounds was expressed as percentage of NEP-inhibition in SHR kidneys.
As an example, the percentages of basal enzymatic activity obtained in the ex vivo tests after the administration of compounds 29 and 41, as representative compounds of formula I, and of the comparison compounds R-1, R-2, R-3 and R-4 are reported in the following table 2.

[1] = target: T1, ACE (purified by lung rabbit, EC 3.4.15.1) (Oryctolagus cuniculus, UniProt P12822); assay: In vitro ACE-inhibitory activity (FAPGG substrate, spectrophotometric); type: biochemical; conditions: 37° C.; FAPGG 0.8 mM
T1 construct: purchased SIGMA; host or cells: rabbit lung
T1 sequence (P12822 34-1310): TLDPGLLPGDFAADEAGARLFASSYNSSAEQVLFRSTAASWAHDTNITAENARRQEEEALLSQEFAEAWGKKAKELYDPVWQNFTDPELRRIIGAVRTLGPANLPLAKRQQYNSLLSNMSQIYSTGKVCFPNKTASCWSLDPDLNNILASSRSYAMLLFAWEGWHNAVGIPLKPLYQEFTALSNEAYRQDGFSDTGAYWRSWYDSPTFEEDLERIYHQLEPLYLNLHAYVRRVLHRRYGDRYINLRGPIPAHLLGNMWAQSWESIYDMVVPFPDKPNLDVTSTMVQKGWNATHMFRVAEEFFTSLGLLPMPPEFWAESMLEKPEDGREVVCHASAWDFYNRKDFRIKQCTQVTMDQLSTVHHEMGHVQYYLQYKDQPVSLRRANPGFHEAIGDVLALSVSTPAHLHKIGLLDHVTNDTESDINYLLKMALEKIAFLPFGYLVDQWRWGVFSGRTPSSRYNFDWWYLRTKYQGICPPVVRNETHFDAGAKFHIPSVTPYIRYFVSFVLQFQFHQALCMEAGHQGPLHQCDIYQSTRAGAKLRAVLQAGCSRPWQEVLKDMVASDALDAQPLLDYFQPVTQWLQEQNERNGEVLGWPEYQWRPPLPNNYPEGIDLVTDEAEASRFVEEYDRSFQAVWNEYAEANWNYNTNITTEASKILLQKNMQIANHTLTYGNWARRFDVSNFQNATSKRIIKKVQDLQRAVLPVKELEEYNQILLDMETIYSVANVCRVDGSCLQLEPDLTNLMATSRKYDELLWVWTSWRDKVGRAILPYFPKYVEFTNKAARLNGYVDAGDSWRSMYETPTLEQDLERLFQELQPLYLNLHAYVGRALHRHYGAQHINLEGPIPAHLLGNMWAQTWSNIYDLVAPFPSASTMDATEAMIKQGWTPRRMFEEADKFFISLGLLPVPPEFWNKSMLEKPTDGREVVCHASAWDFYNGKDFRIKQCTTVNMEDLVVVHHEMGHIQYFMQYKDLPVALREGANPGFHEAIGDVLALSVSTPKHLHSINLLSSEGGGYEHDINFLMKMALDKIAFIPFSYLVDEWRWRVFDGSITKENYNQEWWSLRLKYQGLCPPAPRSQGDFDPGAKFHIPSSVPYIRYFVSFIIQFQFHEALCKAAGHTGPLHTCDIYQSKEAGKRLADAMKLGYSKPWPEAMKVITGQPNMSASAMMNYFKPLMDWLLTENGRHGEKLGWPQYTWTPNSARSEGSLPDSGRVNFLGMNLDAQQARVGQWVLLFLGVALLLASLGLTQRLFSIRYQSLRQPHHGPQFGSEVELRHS
Description: b) ACE-inhibitory activity
The ACE-inhibitory activity was evaluated according to the method reported in the literature by B. Holmquist et al., in Analytical Biochemistry 95, 540-548 (1979).
[…] of ACE (250 mU/ml purified by lung rabbit, EC 3.4.15.1 SIGMA) were preincubated with 50 μl of the compound of formula I or of the comparison compound in thermostated cuvettes at 37° C.
The reaction was started by adding furylacryloylphenylalanylglycylglycine 0.8 mM (FAPGG-SIGMA).
Contemporaneously, by using a Beckman DU-50 spectrophotometer provided with a program for calculating delta A/minutes and regression coefficients of the enzyme kinetics curves, the absorbance at 340 nm was recorded in continuo for 5 minutes.
The percentage of the enzyme inhibition in the preparations treated with the compounds of formula I or with the comparative compounds with respect to the untreated preparations was expressed as IC50 (nM) value.

IC50 [1]: 5 nM
SMILES: O=C(N[C@@H](Cc1ccc(-c2ccccc2)cc1)C(=O)O)C(CS)Cc1ccccc1 (some centres unmarked) [compound 41]
NEP-inhibition (kidneys), 5 minutes (NEP (SHR kidneys)): 20%
